Reference: patent US4379148A, “Analgesic and anti-inflammatory composition” (priority 1981, dated 1983)
Entries after “also recorded” stand apart in the source; their conditions may differ. Where two headings read alike, the source gives them in different places.

Key:
[1] = p.o., combined with emorfazone 240 mg/kg
[2] = in words; for inhibitory effect in combination with emorfazone: combination with 100 mg/kg of emorfazone
Experimental: Female Sprague-Dawley rats (180-220 g) were used. […] On day 0 of the test, the adjuvant containing 0.6 mg of Mycobacterium butylicum (Difco) in 0.1 ml of liquid paraffin was injected into the plantar surface of the right hind paw. The test drugs were administered orally once a day for 15 days. The severity of inflammation of the 4 paws and the tail of each rat was evaluated visually at day 30 and scored by a point system. The grading for each lesion was on a 0 to 3 scale with 0 indicating absence of inflammation and 3 indicating maximum inflammation.

[3] = Analgesic Test by Randall-Selitto Method (carrageenin inflammatory pain); format: in vivo, Male Wistar rats; details: for ED50: Rattus norvegicus, po, read-out: ED50 (dose that increased the mean pain threshold of the control group by 50%), drug alone; for ED50 dose obtained experimentally, with emorfazone 4.5 / theoretical additive ED50 dose, with emorfazone 4.5 / ED50 dose obtained experimentally, with emorfazone 9 / theoretical additive ED50 dose, with emorfazone 9: p.o.; for ED50 dose obtained experimentally, with emorfazone 4.5 / theoretical additive ED50 dose, with emorfazone 4.5: combined with emorfazone 4.5 mg/kg; for ED50 dose obtained experimentally, with emorfazone 9 / theoretical additive ED50 dose, with emorfazone 9: combined with emorfazone 9 mg/kg
Experimental: Male Wistar rats (120-140 g) fasted for 18 hours were divided into test groups and a control group of 5 animals per group. […] The pain threshold was measured after the carrageenin injection at hourly intervals for 3 hours with an analgesy meter (Ugo Basile, Milan).

[4] = Analgesic Test by Phenylquinone Writhing Method; format: in vivo, Male ddY mice; details: for ED50: Mus musculus, po, read-out: ED50 (dose that reduced the number of writhes of the control group by 50%), drug alone; for combined analgesic effect with emorfazone: combination with emorfazone, in words; for ED50 dose obtained experimentally, with emorfazone 10 / theoretical additive ED50 dose, with emorfazone 10 / ED50 dose obtained experimentally, with emorfazone 20 / theoretical additive ED50 dose, with emorfazone 20: p.o.; for ED50 dose obtained experimentally, with emorfazone 10: combined with emorfazone 10 mg/kg (1/4 of its ED50); for theoretical additive ED50 dose, with emorfazone 10: combined with emorfazone 10 mg/kg; for ED50 dose obtained experimentally, with emorfazone 20: combined with emorfazone 20 mg/kg (1/2 of its ED50); for theoretical additive ED50 dose, with emorfazone 20: combined with emorfazone 20 mg/kg
Experimental: Male ddY mice (18-22 g) fasted for 18 hours were divided into test groups and a control group of 7 animals per group. […] The number of writhes was counted for 20 minutes after the p-phenylquinone injection.

[5] = in vivo; details: mouse, po
[6] = Anti-inflammatory Test by Whittle's Method (acetic acid, dye in peritoneal exudate); format: in vivo, Male ddY mice
Experimental: Male ddY mice (18-22 g) fasted for 18 hours were divided into test groups and a control group of 7 or 8 animals each. […] Ten minutes later, 10 ml/kg of 0.7% acetic acid dissolved in physiological saline was injected intraperitoneally into all animals and 20 minutes thereafter the animals were sacrificed. The amount of the dye in the peritoneal exudate was determined at 590 nm by using a spectrophotometer (Hitachi Instrument Co.). The ED30 was defined as the dose which decreased the amount of dye of the control group by 30%, and was determined graphically.

[7] = system: biosynthesis of prostaglandin; experiment: inhibition of the biosynthesis of prostaglandin; format: biochemical; details: in words
[8] = LD50 dose obtained experimentally, with emorfazone 240, p.o., combined with emorfazone 240 mg/kg
[9] = Mus musculus, po; read-out: ED30 (dose which decreased the amount of dye of the control group by 30%), drug alone
[10] = p.o.; combined with emorfazone 28.8 mg/kg
[11] = p.o.; combined with emorfazone 28.8 mg/kg; theoretical additive dose
[12] = p.o.; combined with emorfazone 86 mg/kg
[13] = p.o.; combined with emorfazone 86 mg/kg; theoretical additive dose

Structure (SMILES) | theoretical additive LD50 dose, with emorfazone 240 [1] [mg/kg] | inhibitory effect in combination with emorfazone [2] | ED50 [3] [mg/kg] | ED50 dose obtained experimentally, with emorfazone 4.5 [3] [mg/kg] | theoretical additive ED50 dose, with emorfazone 4.5 [3] [mg/kg] | ED50 dose obtained experimentally, with emorfazone 9 [3] [mg/kg] | theoretical additive ED50 dose, with emorfazone 9 [3] [mg/kg] | ED50 [4] [mg/kg] | combined analgesic effect with emorfazone [4] | ED50 dose obtained experimentally, with emorfazone 10 [4] [mg/kg] | theoretical additive ED50 dose, with emorfazone 10 [4] [mg/kg] | ED50 dose obtained experimentally, with emorfazone 20 [4] [mg/kg] | theoretical additive ED50 dose, with emorfazone 20 [4] [mg/kg] | LD50 at 168 h [5] [mg/kg] | LD50 at 168 h [5, 8] [mg/kg] | ED30 [6, 9] [mg/kg] | ED30 dose obtained experimentally, with emorfazone 28.8 [6, 10] [mg/kg] | theoretical additive ED30 dose, with emorfazone 28.8 [6, 11] [mg/kg] | ED30 dose obtained experimentally, with emorfazone 86 [6, 12] [mg/kg] | theoretical additive ED30 dose, with emorfazone 86 [6, 13] [mg/kg] | other results
CC(=O)Oc1ccccc1C(=O)O [Acetylsalicylic acid, acetylsalicylic acid] | 945 | not essentially affected | 340 | 240 | 255 | 70 | 170 | 155 | for the most part a synergistic response | 115 | 116.3 | 40 | 77.5 | 1260 | 1000 | 225 | 160 | 168.8 | 110 | 112.5 | –
CCCCC1C(=O)N(c2ccccc2)N(c2ccccc2)C1=O [Phenylbutazone] | 427.5 | not essentially affected | 125 | 22 | 93.8 | 19 | 62.5 | 66 | potentiated by the emorfazone; also recorded: for the most part a synergistic response | 32 | 49.5 | 16 | 33 | – | – | 175 | 130 | 131.3 | 86 | 87.5 | –
CC(C)Cc1ccc(C(C)C(=O)O)cc1 (stereo not shown) [Ibuprofen] | 862.5 | significantly potentiated | 120 | 10 | 90 | 8 | 60 | 13.5 | for the most part a synergistic response | 8 | 10.1 | 3 | 6.8 | – | – | 76 | 56 | 57 | 37 | 38 | –
CC(C(=O)O)c1cccc(C(=O)c2ccccc2)c1 (stereo not shown) [Ketoprofen] | – | significantly potentiated | 6 | 3 | 4.5 | 1 | 3 | 0.5 | for the most part a synergistic response | 0.37 | 0.38 | 0.23 | 0.25 | 305 | 380 | 3.2 | 2.2 | 2.4 | 1.3 | 1.6 | –
CCOc1c(N2CCOCC2)cnn(C)c1=O [Emorfazone, 4-ethoxy-2-methyl-5-morpholino-3(2H)-pyridazinone] | – | – | 18 | – | – | – | – | 40 | – | – | – | – | – | – | – | 115 | – | – | – | – | inhibition of the biosynthesis of prostaglandin (emorfazone) [7]: does not inhibit the biosynthesis of prostaglandin; inhibitory effect of emorfazone alone ([2]; 100 mg/kg, used alone): did not show any significant effect when used alone
COc1ccc2cc([C@H](C)C(=O)O)ccc2c1 [Naproxen] | – | significantly potentiated | 240 | 160 | 180 | 60 | 120 | 9 | for the most part a synergistic response | 6.2 | 6.3 | 4.1 | 4.5 | – | – | 12 | 8.5 | 9 | 5.8 | 6 | –
COc1ccc2c(c1)c(CC(=O)O)c(C)n2C(=O)c1ccc(Cl)cc1 [Indomethacin] | 8.5 | significantly potentiated | 6.8 | 0.8 | 5.1 | 0.3 | 3.4 | 0.52 | for the most part a synergistic response | 0.33 | 0.39 | 0.18 | 0.26 | 11.3 | 13 | 2.2 | 1.6 | 1.65 | 1 | 1.1 | –
CC(C(=O)O)c1ccc(-c2ccccc2)c(F)c1 (stereo not shown) [Flurbiprofen] | 157.5 | significantly potentiated | 22 | 15 | 16.5 | – | 11 | 2 | for the most part a synergistic response | 6.2 | 8 | 0.8 | 1 | 210 | 155 | – | 2.8 | 3.0 | 1.9 | 2 | ED30 ([6]; Mus musculus, po, read-out: ED30 (dose which decreased the amount of dye of the control group by 30%), drug alone): 4 mg/kg
Cc1cccc(Nc2ccccc2C(=O)O)c1C [Mefenamic acid] | 892.5 | significantly potentiated | 120 | 58 | 90 | 20 | 60 | 36 | for the most part a synergistic response | 21 | 27 | 13 | 18 | – | – | 82 | 60 | 61.5 | 41 | 41 | –
